# Reference: patent US20180353482A1, “MIRABEGRON FOR THE TREATMENT OF RETINAL DISEASES” (SORBONNE UNIVERSITE, priority 2015, published 2018)
# “Also recorded” adds a separate entry of the source.
# Assays:
# Type in all cases: cell-based, porcine
# RPE cells [1] = experiment: Alkalinisation and measurement of lysosomal pH (pHL) of RPE cells treated with tamoxifen
# cathepsin D = experiment: Cathepsin D activity measurement in RPE cells treated with concanamycin; settings: FIG. 2
# Description: (§1) Pigs' eyes are delivered to Institut de la Vision in a cold medium from a local slaughterhouse. The eyes are dissected so as to remove the anterior segment of the eye, the vitreous body and the neural retina. The eyeballs are then washed twice with PBS, filled with trypsin (0.25% in PBS) and incubated at 37° C. for 1 hr15. The RPE cells are then retrieved by repeated pipetting, centrifuged to remove the trypsin, and resuspended in DMEM culture medium supplemented with 20% foetal calf serum (DMEM20% FCS). The cells of each eye are then inoculated in a 6 cm diameter Petri dish, cultured in an atmosphere containing 5% CO2 at 37° C., and the culture medium is replaced after 24 hours and 4 days in vitro. After one week, the cells reach confluency and can then be passaged.
# After one week in culture, the cells are treated with trypsin and transferred into 3.5 cm diameter Petri dishes at a cell density of 1.5×10^5 cells/cm^2 in DMEM2% FCS. After 24 hours, the cells are treated with 20 nM of concanamycin so as to inhibit the activity of cathepsin D, as well as with a beta-adrenergic agonist. After 24 hours of treatment, the cells are washed with PBS and then transferred into an extraction buffer on ice. The cell extract is centrifuged at 2000 rpm at 4° C. for 10 minutes and the supernatant corresponding to the cytosolic part is frozen at −80° C. until the measurement of the enzyme activity. The activity of cathepsin D is measured using the Anson method (J Gen Physiol. 1938, 22(1):79-89) that we adapted to our experimental schedule. In brief, the cytosolic extract is incubated for 10 minutes at 37° C. in a haemoglobin solution (2.5% in 400 mM of citrate buffer at pH 2.8). The reaction is stopped by adding 5% trichloroacetic acid and the mixture is centrifuged. The optical density of the supernatant containing the breakdown products of haemoglobin is measured at 280 nm. The absorbance is corrected by subtracting that of the control, prepared as above but by adding haemoglobin after stopping the enzymatic reaction. One unit of cathepsin D is then defined as being the quantity of enzyme required to induce a change of absorbance of 1 to 280 nm for 60 minutes of incubation using the experimental conditions described hereinabove. The protein concentration of the cell lysates is measured according to the Bradford method so as to normalise the results.
# Cathepsin D is the lysosomal proteolytic enzyme mainly present in the retinal pigment epithelium involved in photoreceptor outer segment digestion. The activity thereof is dependent on the protonation of the amino acid aspartic acid of the active site thereof and on the conformation thereof, which both require an acidic environment. […]
# RPE cells [2] = experiment: In vitro model of lipofuscin accumulation in RPE (oxidised photoreceptor outer segments); settings: FIG. 3
# Description: as §1, with “The cells of each eye are then inoculated in a 6 cm diameter Petri dish, cultured in an atmosphere containing 5% CO2 at 37° C., and the culture medium is replaced after 24 hours and 4 days in vitro. After one week, the cells reach confluency and can then be passaged.” left out
# In order to induce an accumulation of lipofuscin type material in the RPE cells, the latter are treated 3 times per week with 5×10^6 POS-ox in DMEM20% FCS containing 2.5% of sucrose for two weeks. […] The autofluorescence induced by the accumulation of lipofuscin is measured using a plate reader (excitation at 480 nm and emission between 500 and 700 nm corresponding to the emission spectrum of lipofuscin).
# In order to verify whether the different beta-adrenergic agonists are capable of also acting upon lipofuscin accumulation, we also tested them in a cell model wherein this accumulation is induced by treating RPE cells with oxidised OS by UV exposure every two days. […] The lipofuscin accumulation was measured after two weeks of co-treatment by measuring the autofluorescence of the cells.
# [3] = RPE cells with 20 nM concanamycin, 24 hours of treatment
smiles,measurement,setting,value
"C[C@H](Cc1ccc2c(c1)OC(C(=O)[O-])(C(=O)[O-])O2)NC[C@H](O)c1cccc(Cl)c1.[Na+].[Na+] [CL-316,243]",concentration from which effective on re-acidification of the lysosomal pH,"RPE cells [1]; cells treated with 15 μM tamoxifen, FIG. 1",20 nM
C/C=C/[C@H]1O[C@@](O)([C@@H](C)[C@H](O)[C@H](C)[C@H]2OC(=O)/C(OC)=C/C(C)=C/[C@@H](C)[C@@H](O)[C@@H](CC)[C@@H](O)[C@H](C)C/C(C)=C/C=C/[C@@H]2OC)C[C@@H](O)[C@@H]1C [concanamycin],cathepsin D activity,cathepsin D; [3],0.013 unit/ml of enzyme/min/μg of proteins
"Nc1nc(CC(=O)Nc2ccc(CCNC[C@H](O)c3ccccc3)cc2)cs1 [mirabegron, (R)-2-(2-aminothiazol-4-yl)-4′-[2-[(2-hydroxy-2-phenylethyl)amino]ethyl]acetic acid anilide]",effect on lipofuscin accumulation / photoreceptor outer segment digestion (in words),"RPE cells [2]; RPE cells, two weeks of treatment",significantly reduce the accumulation of lipofuscin; also recorded: reduces the accumulation of lipofuscin
same,reduction of the accumulation of lipofuscin by RPE cells (autofluorescence),"RPE cells [2]; agonist at 10 μM, two weeks of co-treatment with oxidised outer segments, versus DMSO control",~20%
same,effect on lysosomal pH (in words),"RPE cells [1]; 1 pM, FIG. 1",lowers the lysosomal pH
same,restoration of cathepsin D activity (in words),cathepsin D; RPE cells treated with concanamycin,significantly restores the activity of cathepsin D
same,cathepsin D activity,cathepsin D; [3],0.040 unit/ml of enzyme/min/μg of proteins
same,multiplication of cathepsin D activity compared to negative control (concanamycin),cathepsin D; [3],3 fold
CC/C(=C(\c1ccccc1)c1ccc(OCCN(C)C)cc1)c1ccccc1 [tamoxifen],increase in the lysosomal pH,"RPE cells [1]; 15 μM tamoxifen, in 20 minutes",~1 pH unit
